Measured values from patent publication US10730923B2 (Indiana University Research and Technology Corporation, priority 2011, dated 2020).
*1 amine or outer side, *2 acyl side, *3 side chain or, on linkers, in order; H or OH if unused. Where a SMILES comes first, the peptide text is derived from it. Where no end group is shown, it is not given here. Side-chain parts run from the residue outwards. [ ]: non-standard residue; d: D form. The star is where a group is joined. γGlu = O=C(O)[C@H](CCC(=O)[*:2])N[*:1]; Palmitoyl = CCCCCCCCCCCCCCCC(=O)*; Aib = CC(C)(N)C(=O)O

Legend:
Assay type in all cases: in vivo
[1] = diet-induced obese (DIO) mice, daily dosing for nine days: body weight and ambient glucose
Protocol: Mice were administered a vehicle control or a dose of a peptide daily for nine days. The peptides tested in this study included a peptide of SEQ ID NO: 12, a peptide of SEQ ID NO: 17, a peptide of SEQ ID NO: 18, and a peptide of SEQ ID NO: 19. Doses of each peptide were varied—each of the peptides of SEQ ID NO: 12, 17, and 19 was administered at a dose of either 3 nmol/kg or 9 nmol/kg, while the peptide of SEQ ID NO: 18 was administered at a dose of 1 nmol/kg, 3 nmol/kg, or 9 nmol/kg. Data are expressed as mean±SEM.
In addition to cumulative body weight change, ambient glucose levels of the DIO mice were measured.

[2] = obese rhesus monkeys, daily dosing for 21 days: body weight and food intake
Protocol: The in vivo effects of a peptide of the invention were confirmed in obese rhesus monkeys by administering daily for 21 days a vehicle control, a commercially available product (Liraglutide), a peptide of SEQ ID NO: 20, or a peptide of SEQ ID NO: 17. […] Body weight and food intake were measured.

[3] = diabetic rhesus monkeys, 10 days treatment: body weight, fasting blood glucose, Meal Tolerance Test; conditions: 1 μg/kg s.c. for 10 days
Protocol: The in vivo effects of a peptide of the invention were tested in diabetic rhesus monkeys (n=7) that were aged 16-26 years and having an average body weight of […]. Diabetic rhesus monkeys (n=7) that were aged 16-26 years with an average body weight of […] were administered a vehicle control, Liraglutide at a dose of 10 μg/kg s.c. or a peptide of SEQ ID NO: 17 at a dose of 1 μg/kg s.c. for 10 days. At the end of each treatment, fasting blood glucose (FBG) was measured first followed by a Meal Tolerance Test (MTT) to assess glucose tolerance. […] Data are expressed in FIG. 4 as mean±SEM. *P<0.05 versus vehicle.

Compound	reduction in glucose levels compared to vehicle control mice ([1]; 3 nmol/kg, Day 7) [%]	decrease in glucose levels compared to vehicle control mice ([1]; 3 nmol/kg, Day 9) [%]	decrease in glucose levels compared to vehicle control mice ([1]; 9 nmol/kg, Day 4) [%]	decrease in glucose levels compared to vehicle control mice ([1]; 9 nmol/kg, Day 7) [%]	decrease in glucose levels compared to vehicle control mice ([1]; 9 nmol/kg, Day 9) [%]	body weight following a one week wash-out ([2]; Day 28)	food intake, % change vs. baseline ([2]; daily s.c. for 21 days, Liraglutide 20 μg/kg, SEQ ID NO: 17 3 μg/kg)	glucose tolerance during Meal Tolerance Test (MTT) compared to vehicle [3]	decrease in ambient glucose vs. vehicle ([1]; 3 nmol/kg or 9 nmol/kg dose, by Day 4) [%]
CCCCCCCCCCCCCCCC(=O)N[C@@H](CCC(=O)N[C@@H](CCC(=O)NCCCC[C@H](NC(=O)[C@H](CC(=O)O)NC(=O)[C@H](CO)NC(=O)[C@@H](NC(=O)[C@H](Cc1ccccc1)NC(=O)[C@@H](NC(=O)CNC(=O)[C@H](CCC(N)=O)NC(=O)C(C)(C)NC(=O)[C@@H](N)Cc1c[nH]cn1)[C@@H](C)O)[C@@H](C)O)C(=O)N[C@@H](CO)C(=O)N[C@@H](CCCCN)C(=O)N[C@@H](Cc1ccc(O)cc1)C(=O)N[C@@H](CC(C)C)C(=O)N[C@@H](CC(=O)O)C(=O)NC(C)(C)C(=O)N[C@@H](CCCNC(=N)N)C(=O)N[C@@H](C)C(=O)N[C@@H](C)C(=O)N[C@@H](CCC(N)=O)C(=O)N[C@@H](CC(=O)O)C(=O)N[C@@H](Cc1ccccc1)C(=O)N[C@H](C(=O)N[C@@H](CCC(N)=O)C(=O)N[C@@H](Cc1c[nH]c2ccccc12)C(=O)N[C@@H](CC(C)C)C(=O)N[C@@H](CCSC)C(=O)N[C@@H](CC(N)=O)C(=O)N[C@H](C(=O)N[C@@H](CCCCN)C(=O)N[C@@H](CCC(N)=O)C(=O)O)[C@@H](C)O)C(C)C)C(=O)O)C(=O)O [SEQ ID NO: 17] (H-H[Aib]QGTFTSDK([γGlu-γGlu-Palmitoyl])SKYLD[Aib]RAAQDFVQWLMNTKQ-OH; N-terminus assumed)	~28	~19	~48	~48	~45	regained much of the weight that was lost	−25.7%±3.2	improved glucose tolerance	
SEQ ID NO: 18: peptide of SEQ ID NO: 18 of the sequence listing, tested in DIO mice; sequence not printed in the text (HXQGTFTSDKSKYLDERAAQDFVQWLMDT; (2)..(2) Xaa is AIB; (10)..(10) Acylated with a C16 fatty acyl group via gamma-Glu-gamma-Glu spacer; (29)..(29) C-terminal amidation)									−29
SEQ ID NO: 19: peptide of SEQ ID NO: 19 of the sequence listing, tested in DIO mice; sequence not printed in the text (H[dS]QGTFTSDK([γGlu-Palmitoyl])SKYLDERAAQDFVQWLLDT-NH2; N-terminus assumed; SMILES CCCCCCCCCCCCCCCC(=O)N[C@@H](CCC(=O)NCCCC[C@H](NC(=O)[C@H](CC(=O)O)NC(=O)[C@H](CO)NC(=O)[C@@H](NC(=O)[C@H](Cc1ccccc1)NC(=O)[C@@H](NC(=O)CNC(=O)[C@H](CCC(N)=O)NC(=O)[C@@H](CO)NC(=O)[C@@H](N)Cc1c[nH]cn1)[C@@H](C)O)[C@@H](C)O)C(=O)N[C@@H](CO)C(=O)N[C@@H](CCCCN)C(=O)N[C@@H](Cc1ccc(O)cc1)C(=O)N[C@@H](CC(C)C)C(=O)N[C@@H](CC(=O)O)C(=O)N[C@@H](CCC(=O)O)C(=O)N[C@@H](CCCNC(=N)N)C(=O)N[C@@H](C)C(=O)N[C@@H](C)C(=O)N[C@@H](CCC(N)=O)C(=O)N[C@@H](CC(=O)O)C(=O)N[C@@H](Cc1ccccc1)C(=O)N[C@H](C(=O)N[C@@H](CCC(N)=O)C(=O)N[C@@H](Cc1c[nH]c2ccccc12)C(=O)N[C@@H](CC(C)C)C(=O)N[C@@H](CC(C)C)C(=O)N[C@@H](CC(=O)O)C(=O)N[C@H](C(N)=O)[C@@H](C)O)C(C)C)C(=O)O)			~40	~39	~26				
